Where two headings read alike, the source gives them in different places.
Legend:
[1] = biological target: T1, P-gp (MDR1) (Homo sapiens (Human), UniProt P08183); assay: MDR1 LLC-PK1 permeability assay: efflux ratio; details: for MDR1 efflux ratio: MDR1 transfected LLC-PK1 cells, Papp(B−A)/Papp(A−B), test article 1 μM, 2 hours; for efflux ratio at 2 h, 1 µM: pig, LLC-PK1
[2] = biological target: full-length FLAG-tagged B-Raf(V600E) (Homo sapiens (Human), UniProt P15056, V600E); assay: BRAF V600E enzyme assay (TR-FRET competitive displacement of fluorescent tracer); format: binding; details: averaged IC50; 60 min at ambient temperature; 11-point dosing, top dose 10 μM
Chain of full-length FLAG-tagged B-Raf(V600E) (P15056 whole entry V600E): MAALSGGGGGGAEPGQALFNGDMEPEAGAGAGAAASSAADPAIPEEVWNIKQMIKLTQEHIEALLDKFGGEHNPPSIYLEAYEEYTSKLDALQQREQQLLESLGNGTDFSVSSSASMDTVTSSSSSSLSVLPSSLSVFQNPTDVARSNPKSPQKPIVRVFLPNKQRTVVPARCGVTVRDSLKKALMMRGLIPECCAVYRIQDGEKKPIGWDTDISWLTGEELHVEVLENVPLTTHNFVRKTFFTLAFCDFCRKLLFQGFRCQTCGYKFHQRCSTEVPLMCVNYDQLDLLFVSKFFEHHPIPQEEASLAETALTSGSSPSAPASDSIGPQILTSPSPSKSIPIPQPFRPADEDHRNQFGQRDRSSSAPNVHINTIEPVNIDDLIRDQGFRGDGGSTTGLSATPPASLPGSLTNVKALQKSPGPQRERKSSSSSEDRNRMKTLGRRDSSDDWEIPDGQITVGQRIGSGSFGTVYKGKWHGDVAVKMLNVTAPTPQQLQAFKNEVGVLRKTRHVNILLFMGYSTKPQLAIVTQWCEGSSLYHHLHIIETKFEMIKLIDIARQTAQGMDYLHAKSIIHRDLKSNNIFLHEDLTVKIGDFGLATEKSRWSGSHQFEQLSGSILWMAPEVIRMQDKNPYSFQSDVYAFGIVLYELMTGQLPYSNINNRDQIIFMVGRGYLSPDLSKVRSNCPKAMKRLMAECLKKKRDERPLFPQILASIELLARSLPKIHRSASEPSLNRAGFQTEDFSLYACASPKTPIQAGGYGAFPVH
Source text: (§1) A competitive displacement assay was configured for B-Raf that monitors the amount of a fluorescently-tagged “tracer” bound to B-Raf via TR-FRET from an anti-tag Eu-labeled antibody also bound to B-Raf.
(§2) [formula] • where: • Xmax Average Uninhibited Controls • Xmin Average Background
(§3) A 4-parameter logistic model was the fit to the POC data for each compound.

[3] = tested on: LLC-PK1 or MDCKII cell monolayer; assay: MDR1 LLC-PK1 and BCRP MDCKII permeability assay: permeability coefficient (Papp); details: permeability coefficient Papp; test article 1 μM; 2 hours, 37° C.
Method: (§4) Both LLC-PK1 and MDR1 transfected LLC-PK1 cells were cultured and plated according to manufacturer's recommendations with the exception that the passage media contained only 2% fetal bovine serum to extend passage time out to seven days.
(§5) BCRP transfected MDCKII cells were cultured and plated according to manufacturer's recommendations. Assay conditions included with and without the BCRP-specific inhibitor, K0143, at a concentration of 0.3 μM to ascertain the contribution of BCRP to the efflux value of the test compound.
(§6) Both positive and negative controls were used to assess functionality of P-gp or BCRP efflux in the assays. […] Final organic concentration in the assay was 1%. All dosing solutions contained 10 μM lucifer yellow to monitor LLC-PK1 or MDCKII cell monolayer integrity.
(§7) For the apical to basolateral determination (A to B), 75 μL of the test article in transport buffer were added to the apical side of the individual transwells and 250 μL of basolateral media, without compound or lucifer yellow, were added to each well. For the basolateral to apical determination (B to A), 250 μL of test article in transport buffer were added to each well and 75 μL transport buffer, without compound or lucifer yellow, were added to each transwell. All tests were performed in triplicate, and each compound was tested for both apical to basolateral and basolateral to apical transport. The plates were incubated for 2 hours on a Lab-Line Instruments Titer Orbital Shaker (VWR, West Chester, Pa.) at 50 rpm and 37° C. with 5% CO2. All culture plates were removed from the incubator and 50 μL of media were removed from the apical and basolateral portion of each well and added to 150 μL of 1 μM labetalol in 2:1 acetonitrile (acetonitrile): H2O, v/v.
(§8) These values were accepted when found to be below 2% for apical to basolateral and 5% basolateral to apical flux across the MDR1-transfected LLC-PK1 or BCRP-transfected MDCKII cell monolayers. The plates were sealed and the contents of each well analyzed by LC-MS/MS. The compound concentrations were determined from the ratio of the peak areas of the compound to the internal standard (labetalol) in comparison to the dosing solution.
(§9) The LC-MS/MS system was comprised of an HTS-PAL autosampler (Leap Technologies, Carrboro, N.C.), an HP1200 HPLC (Agilent, Palo Alto, Calif.), and a MDS Sciex 4000 Q Trap system (Applied Biosystems, Foster City, Calif.). […] The total run time, including re-equilibration, for a single injection was 1.2 minutes. Mass spectrometric detection of the analytes was accomplished using the ion spray positive mode.
(§10) where Cd, V, t and C0 are the detected concentration (μM), the volume on the dosing side (mL); the incubation time (s) and the initial dosing concentration (μM), respectively. The calculations for Papp were made for each replicate and then averaged.

[4] = biological target: T2, BCRP (Homo sapiens (Human), UniProt Q9UNQ0); assay: BCRP MDCKII permeability assay: efflux ratio; details: for BCRP efflux ratio: BCRP transfected MDCKII cells, Papp(B−A)/Papp(A−B), test article 1 μM, 2 hours; for efflux ratio at 2 h, 1 µM: dog
T2 sequence (Q9UNQ0 whole entry, species assumed): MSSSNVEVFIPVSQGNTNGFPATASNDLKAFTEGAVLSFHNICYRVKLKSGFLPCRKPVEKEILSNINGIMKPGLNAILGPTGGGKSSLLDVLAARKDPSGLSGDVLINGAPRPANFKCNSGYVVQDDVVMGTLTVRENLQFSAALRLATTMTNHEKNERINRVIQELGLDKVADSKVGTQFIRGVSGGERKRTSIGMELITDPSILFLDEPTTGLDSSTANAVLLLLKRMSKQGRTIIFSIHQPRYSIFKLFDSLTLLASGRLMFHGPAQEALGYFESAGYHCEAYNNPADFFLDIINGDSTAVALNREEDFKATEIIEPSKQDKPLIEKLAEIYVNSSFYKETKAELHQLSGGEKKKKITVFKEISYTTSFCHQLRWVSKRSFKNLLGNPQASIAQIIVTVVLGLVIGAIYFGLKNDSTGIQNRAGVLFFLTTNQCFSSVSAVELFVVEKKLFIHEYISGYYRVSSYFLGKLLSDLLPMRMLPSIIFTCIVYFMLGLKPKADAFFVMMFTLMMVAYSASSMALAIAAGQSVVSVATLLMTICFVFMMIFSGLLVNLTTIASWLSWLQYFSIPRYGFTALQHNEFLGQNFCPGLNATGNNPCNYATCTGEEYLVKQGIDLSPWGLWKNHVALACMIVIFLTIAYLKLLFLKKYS
Method: as §5, §6, §7, §8, §9
(§11) An efflux ratio is calculated from the mean apical to basolateral (A−B) Papp data and basolateral to apical (B−A) Papp data: Efflux ratio=Papp(B−A)/Papp(A−B)

[5] = PK (free brain-to-free plasma ratio) (mouse); format: in vivo; details: unbound brain-to-unbound plasma concentration ratio, male CD-1 mice, oral gavage 10 mg/kg, sampling 2-24 hours; for Kp,uu (unbound brain/unbound plasma ratio): mouse, read-out: B/P ratio (free)
Method: PK (Free Brain-to-Free Plasma Ratio) (Mouse)
The ability of representative compounds to penetrate the BBB in mice was determined by evaluating the unbound brain-to-unbound plasma (also referred to as free brain-to-free plasma) concentration ratio in male CD-1 mice.
Brain samples were stored at −20±5° C. prior to analysis. Concentrations of test compound in mouse brain homogenate were determined by liquid chromatography tandem mass spectrometry (LC-MS/MS) following protein precipitation with acetonitrile. A 12-point calibration curve, ranging from 0.5 to 10,000 ng/mL, was prepared in duplicate. A solution of 400 μg/mL of test compound in dimethyl sulfoxide (DMSO) was serially diluted (3-fold) in 100% DMSO, and then 2.5 μL of each standard solution was added to 100 μL of naïve male CD-1 mice brain homogenate. To mimic the extraction in the standard curve, 2.5 μL of DMSO was added to all test samples. Both calibration and test brain homogenate samples were spiked with 10 μL of an IS (1 μg/mL of a structural analog). Brain homogenate was generated by adding 0.75 mL of 4:1 water:MeOH to each brain sample followed by homogenization for 1 minute with bead beater tubes a 6 m/s using an MP Fast Prep-24®. Proteins were precipitated from 100 μL of brain homogenate sample by the addition of 300 μL of acetonitrile. […] A 100 μL aliquot of each supernatant was transferred via a 550 μL Personal Pipettor (Apricot Designs, Monrovia, Calif.) to 96-well plates and diluted 1:1 with HPLC grade water. The resulting plates were sealed with aluminum for LC-MS/MS analysis.
Brain-to-plasma ratios were calculated using the concentration of compound measured in the brain divided by the concentration of compound measured in the plasma. Brain-to-plasma ratios were always generated from a single animal and time point. Free brain-to-free plasma ratios were calculated by multiplying the brain-to-plasma ratio by the in vitro brain homogenate free fraction divided by the in vitro plasma free fraction using the following equation: (B/P)*(Bfu/Pfu).

[6] = biological target: N-terminally GST-tagged B-Raf(V600K) (Homo sapiens, UniProt P15056, V600K); assay: BRAF V600K enzyme assay (TR-FRET competitive displacement of fluorescent tracer); format: binding; details: averaged IC50; 60 min at ambient temperature; 11-point dosing, top dose 10 μM
Chain of N-terminally GST-tagged B-Raf(V600K) (P15056 2-766 V600K limits assumed): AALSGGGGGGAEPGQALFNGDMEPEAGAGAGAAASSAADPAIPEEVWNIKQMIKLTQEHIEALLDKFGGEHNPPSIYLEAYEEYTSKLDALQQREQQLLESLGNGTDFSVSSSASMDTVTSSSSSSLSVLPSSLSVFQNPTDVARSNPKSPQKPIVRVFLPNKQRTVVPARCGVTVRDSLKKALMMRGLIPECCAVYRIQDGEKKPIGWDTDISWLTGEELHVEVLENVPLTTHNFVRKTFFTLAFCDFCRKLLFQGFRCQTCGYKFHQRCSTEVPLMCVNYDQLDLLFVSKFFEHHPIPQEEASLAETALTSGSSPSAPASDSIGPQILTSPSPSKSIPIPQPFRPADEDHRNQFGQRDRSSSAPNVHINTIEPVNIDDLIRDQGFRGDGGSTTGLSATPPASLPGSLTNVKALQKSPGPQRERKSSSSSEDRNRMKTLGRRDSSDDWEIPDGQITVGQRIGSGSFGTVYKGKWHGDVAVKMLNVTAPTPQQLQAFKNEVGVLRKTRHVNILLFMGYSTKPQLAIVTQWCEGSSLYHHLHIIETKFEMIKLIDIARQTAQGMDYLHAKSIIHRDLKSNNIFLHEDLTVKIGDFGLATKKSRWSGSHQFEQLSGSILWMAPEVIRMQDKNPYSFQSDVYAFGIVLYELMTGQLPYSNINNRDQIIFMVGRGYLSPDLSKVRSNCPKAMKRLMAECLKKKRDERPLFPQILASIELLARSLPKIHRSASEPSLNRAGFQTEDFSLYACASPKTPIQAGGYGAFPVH
Source text: as §1, §2, §3

[7] = MDR1 LLC-PK1 and BCRP MDCKII permeability assay: permeability coefficient (Papp)
Method: as §4, §5, §6, §7, §8, §9, §10

[8] = tested on: LLC-PK1 or MDCKII cell monolayer
Method: as §4, §5, §6, §7, §8, §9, §10

[9] = tested on: A375-luciferase intracranial tumor xenografts; assay: Intracranial A375-luciferase efficacy and survival mouse tumor model; format: in vivo, female nu/nu NCr mice; details: for Survival (# Animals on day 90): n=10
Method: Female nu/nu NCr mice from Envigo (Indianapolis, Ind.) were obtained at 5-6 weeks of age and housed in groups of 5. Following a one week minimum acclimation period, mice received orthotopic (i.c.) intracranial injections of 3.0×10^3 A375-luciferase tumor cells suspended in a volume of 10 μL 0.9% sterile Dulbecco's phosphate buffered saline (DPBS) using the top-down approach (Laursen and Belknap, 1986). Seven days post cell implant (Day 1), animals were randomized and sorted into five groups (n=10/group).
Test compounds were given at a dose volume of 10 mL/kg, and vehicles were matched for each group to control for dosing stress, i.e. all groups received twice daily (BID) dose administration by oral gavage (PO) at the relevant dose volumes and schedule shown in Table 9. Tumor growth was monitored by measuring luciferase activity twice per week. Total flux/mouse can vary by an order of magnitude on day 1 of study start (start of dosing). The total flux was normalized per mouse by assigning the first measurement of flux on […] as 100%. Body weight loss as an indicator of tumor progression was determined daily during the dosing interval and then as needed (at least once weekly). Survival was evaluated through day 90 (30 days post-dosing cessation).

[10] = biological target: T1, P-gp (MDR1); details: pig, LLC-PK1, 2 h, 1 µM
[11] = biological target: T2, BCRP; details: dog, 2 h, 1 µM
Method: as §5, §6, §7, §8, §9, §11

T1 sequence (P08183 whole entry, species assumed): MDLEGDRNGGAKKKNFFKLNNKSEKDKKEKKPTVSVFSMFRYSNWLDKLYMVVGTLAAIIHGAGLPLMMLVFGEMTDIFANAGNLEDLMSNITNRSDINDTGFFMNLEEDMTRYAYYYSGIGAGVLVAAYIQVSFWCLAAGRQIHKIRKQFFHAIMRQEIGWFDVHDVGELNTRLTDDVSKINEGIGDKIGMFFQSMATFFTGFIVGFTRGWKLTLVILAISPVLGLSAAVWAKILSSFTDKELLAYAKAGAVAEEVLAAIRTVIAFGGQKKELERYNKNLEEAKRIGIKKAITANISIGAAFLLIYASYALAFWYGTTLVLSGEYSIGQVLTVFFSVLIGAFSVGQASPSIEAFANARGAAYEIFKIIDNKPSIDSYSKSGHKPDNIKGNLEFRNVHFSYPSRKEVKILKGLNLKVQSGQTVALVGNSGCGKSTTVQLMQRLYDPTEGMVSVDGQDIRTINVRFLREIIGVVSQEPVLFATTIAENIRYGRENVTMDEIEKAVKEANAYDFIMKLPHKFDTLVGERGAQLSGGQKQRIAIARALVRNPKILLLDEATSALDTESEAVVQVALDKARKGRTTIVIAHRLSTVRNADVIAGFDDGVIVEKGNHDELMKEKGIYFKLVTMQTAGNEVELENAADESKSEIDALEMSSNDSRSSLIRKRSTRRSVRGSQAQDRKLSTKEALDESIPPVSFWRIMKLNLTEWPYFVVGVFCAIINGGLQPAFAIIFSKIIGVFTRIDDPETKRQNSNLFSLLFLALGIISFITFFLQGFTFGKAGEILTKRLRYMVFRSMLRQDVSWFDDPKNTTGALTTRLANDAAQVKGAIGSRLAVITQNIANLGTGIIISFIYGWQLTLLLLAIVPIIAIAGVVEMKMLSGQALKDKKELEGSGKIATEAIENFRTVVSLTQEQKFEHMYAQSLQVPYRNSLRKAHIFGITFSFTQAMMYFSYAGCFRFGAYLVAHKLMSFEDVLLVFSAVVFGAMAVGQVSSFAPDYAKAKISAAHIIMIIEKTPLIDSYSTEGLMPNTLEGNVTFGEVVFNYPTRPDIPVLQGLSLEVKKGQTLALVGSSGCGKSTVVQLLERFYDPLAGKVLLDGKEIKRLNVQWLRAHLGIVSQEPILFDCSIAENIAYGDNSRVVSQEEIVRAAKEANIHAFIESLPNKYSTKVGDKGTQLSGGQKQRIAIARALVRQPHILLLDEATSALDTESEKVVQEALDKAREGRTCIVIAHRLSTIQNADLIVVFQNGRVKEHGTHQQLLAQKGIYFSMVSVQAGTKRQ

Row | IC50 [6] [µM] | Compound | MDR1 efflux ratio [1] | IC50 [2] [µM] | Permeability [3] | BCRP efflux ratio [4] | further results
1 | – | 1-cyclopropyl-N-(4-((3,5-dimethyl-4-oxo-3,4-dihydroquinazolin-6-yl)amino)-3,5-difluoropyridin-2-yl)methanesulfonamide [Example 42] | 5.26 | 0.0603 | 18.35 *10^−6 cm/s | 23.73 | –
2 | 0.0085 | CCCS(=O)(=O)Nc1ccc(F)c(Nc2ccc3ncn(C)c(=O)c3c2C)c1F [Example 1, N-(3-((3,5-dimethyl-4-oxo-3,4-dihydroquinazolin-6-yl)amino)-2,4-difluorophenyl)propane-1-sulfonamide] | – | 0.0427 | – | – | Kp,uu (unbound brain/unbound plasma ratio) [5]: 0.3 to 0.62; efflux ratio at 2 h, 1 µM [1]: 1.68; Papp at 2 h, 1 µM [7]: 34.9 ×10⁻⁶ cm/s; efflux ratio at 2 h, 1 µM [4]: 3.4
3 | 0.0081 | Cc1c(Nc2cccc(NS(=O)(=O)CCCF)c2Cl)ccc2ncn(C)c(=O)c12 [Example 4] | – | 0.0161 | – | – | Kp,uu (unbound brain/unbound plasma ratio) [5]: 0.35 to 1.6; efflux ratio at 2 h, 1 µM [1]: 1.14; Papp at 2 h, 1 µM [7]: 34.5 ×10⁻⁶ cm/s; efflux ratio at 2 h, 1 µM [4]: 1.85
4 | 0.0022 | CCCS(=O)(=O)Nc1cc(F)c(F)c(Nc2ccc3ncn(C)c(=O)c3c2C)c1Cl [Example 7, N-(2-chloro-3-((3,5-dimethyl-4-oxo-3,4-dihydroquinazolin-6-yl)amino)-4,5-difluorophenyl)propane-1-sulfonamide] | – | 0.0013 | – | – | Kp,uu (unbound brain/unbound plasma ratio) [5]: 0.87 to 1.19; efflux ratio at 2 h, 1 µM [1]: 1.3; Papp at 2 h, 1 µM [7]: 26.3 ×10⁻⁶ cm/s; efflux ratio at 2 h, 1 µM [4]: 1.64
5 | 0.0065 | CCCS(=O)(=O)Nc1ccc(F)c(Nc2ccc3ncn(C)c(=O)c3c2C)c1Cl [Example 9, N-(2-chloro-3-((3,5-dimethyl-4-oxo-3,4-dihydroquinazolin-6-yl)amino)-4-fluorophenyl)propane-1-sulfonamide] | – | 0.0197 | – | – | Kp,uu (unbound brain/unbound plasma ratio) [5]: 0.76 to 1.04; efflux ratio at 2 h, 1 µM [1]: 1.26; Papp at 2 h, 1 µM [7]: 27.8 ×10⁻⁶ cm/s; efflux ratio at 2 h, 1 µM [4]: 1.23
6 | – | CCCS(=O)(=O)Nc1cc(Cl)cc(Nc2ccc3ncn(C)c(=O)c3c2C)c1Cl [Example 48, N-(2,5-dichloro-3-((3,5-dimethyl-4-oxo-3,4-dihydroquinazoli-6-yl)amino)phenyl)propane-1-sulfonamide] | – | 0.003 | – | – | Permeability [8]: 25.83 *10^−6 cm/s
7 | – | CCCS(=O)(=O)Nc1cccc(Nc2ccc3ncn(C)c(=O)c3c2C)c1C#N [Example 53, N-(2-cyano-3-((3,5-dimethyl-4-oxo-3,4-dihdyroquinazolin-6-yl)amino)phenyl)propane-1-sulfonamide] | – | 0.0094 | – | – | Permeability [8]: 27.13 *10^−6 cm/s
8 | – | CCN(C)S(=O)(=O)Nc1ccc(F)c(Nc2ccc3ncn(C)c(=O)c3c2C)c1Cl [Example 54, N-(2-chloro-3-((3,5-dimethyl-4-oxo-3,4-dihydroquinazolin-6-yl)amino)-4-fluorophenyl)-N-ethyl-N-methylamino-1-sulfonamide] | – | 0.188 | – | – | Permeability [8]: 35.81 *10^−6 cm/s
9 | 0.0028 | Cc1c(Oc2c(F)ccc(NS(=O)(=O)CCCF)c2Cl)ccc2ncn(C)c(=O)c12 [Example 67, N-{2-chloro-3-[(3,5-dimethyl-4-oxo-3,4-dihydroquinazolin-6-yl)oxy]-4-fluorophenyl}-3-fluoropropane-1-sulfonamide] | – | 0.002 | – | – | Kp,uu (unbound brain/unbound plasma ratio) [5]: 0.4 to 0.49; efflux ratio at 2 h, 1 µM [1]: 1.8; Papp at 2 h, 1 µM [7]: 27.6 ×10⁻⁶ cm/s; efflux ratio at 2 h, 1 µM [4]: 1.8
10 | – | Cc1c(Nc2c(F)ccc(NS(=O)(=O)CCCF)c2Cl)ccc2ncn(C)c(=O)c12 [Example 82, N-(2-chloro-3-((3,5-dimethyl-4-oxo-3,4-dihydroquinazolin-6-yl)amino)-4-fluorophenyl)-3-fluoropropane-1-sulfonamide] | – | – | – | – | Survival (# Animals on day 90) ([9]; Example 82 10 mg/kg BID PO 60 days): 6/10; Survival (# Animals on day 90) ([9]; Example 82 30 mg/kg BID PO 60 days): 6/10; efficacy as a single agent in the model ([9]; both doses employed (10 and 30 mg/kg BID PO)): highly effective; effect on tumor growth (total bioluminescence, FIG. 15) ([9]; single agent, BID for 60 consecutive days PO): significant effect
11 | – | N-(2-chloro-3-((3,5-dimethyl-4-oxo-3,4-dihydroquinazolin-6-yl)amino)-4-fluorophenyl)-1-cyclopropylmethanesulfonamide [Example 50] | 1.54 | 0.0661 | 21.88 *10^−6 cm/s | 1.13 | –
12 | – | N-(2-chloro-3-((3,5-dimethyl-4-oxo-3,4-dihydroquinazolin-6-yl)amino)-4-fluorophenyl)-2-methylpropane-1-sulfonamide [Example 51] | 1.64 | 0.0634 | 27.16 *10^−6 cm/s | 1.28 | –
13 | – | N-(2-chloro-3-((3,5-dimethyl-4-oxo-3,4-dihydroquinazolin-6-yl)amino)-4-fluorophenyl)ethanesulfonamide [Example 52] | 1.76 | 0.226 | 28.91 *10^−6 cm/s | 1.28 | –
14 | – | N-(3-chloro-4-((3,5-dimethyl-4-oxo-3,4-dihydroquinazolin-6-yl)amino)-5-fluoropyridin-2-yl)-1-cyclopropylmethanesulfonamide [Example 47] | 1.84 | 0.0417 | 25.7 *10^−6 cm/s | 7.93 | –
15 | – | N-(3-chloro-4-((3,5-dimethyl-4-oxo-3,4-dihydroquinazolin-6-yl)amino)-5-fluoropyridin-2-yl)ethanesulfonamide [Example 45] | 2.47 | 0.137 | 16.56 *10^−6 cm/s | 11.29 | –
16 | – | N-(4-((3,5-dimethyl-4-oxo-3,4-dihydroquinazolin-6-yl)amino)-3,5-difluoropyridin-2-yl)ethanesulfonamide [Example 43] | 5.24 | 0.26 | 8.75 *10^−6 cm/s | 26.02 | –
17 | 0.0031 | N-{2-chloro-3-[(3,5-dimethyl-4-oxo-3,4-dihydroquinazolin-6-yl)oxy]-4-fluorophenyl}propane-1-sulfonamide [Example 55] | – | 0.0054 | – | – | B/P ratio (free) [5]: 0.46-0.51; MDR1 efflux ratio [10]: 1.1; BCRP efflux ratio [11]: 0.83
